Bounds are passed on as bounds.

One assay deals with T1, full-length ATR (Homo sapiens, UniProt Q13535).
T1 construct: Assays were carried out at 25° C. in the presence of 5 nM full-length ATR
T1 sequence (Q13535 whole entry): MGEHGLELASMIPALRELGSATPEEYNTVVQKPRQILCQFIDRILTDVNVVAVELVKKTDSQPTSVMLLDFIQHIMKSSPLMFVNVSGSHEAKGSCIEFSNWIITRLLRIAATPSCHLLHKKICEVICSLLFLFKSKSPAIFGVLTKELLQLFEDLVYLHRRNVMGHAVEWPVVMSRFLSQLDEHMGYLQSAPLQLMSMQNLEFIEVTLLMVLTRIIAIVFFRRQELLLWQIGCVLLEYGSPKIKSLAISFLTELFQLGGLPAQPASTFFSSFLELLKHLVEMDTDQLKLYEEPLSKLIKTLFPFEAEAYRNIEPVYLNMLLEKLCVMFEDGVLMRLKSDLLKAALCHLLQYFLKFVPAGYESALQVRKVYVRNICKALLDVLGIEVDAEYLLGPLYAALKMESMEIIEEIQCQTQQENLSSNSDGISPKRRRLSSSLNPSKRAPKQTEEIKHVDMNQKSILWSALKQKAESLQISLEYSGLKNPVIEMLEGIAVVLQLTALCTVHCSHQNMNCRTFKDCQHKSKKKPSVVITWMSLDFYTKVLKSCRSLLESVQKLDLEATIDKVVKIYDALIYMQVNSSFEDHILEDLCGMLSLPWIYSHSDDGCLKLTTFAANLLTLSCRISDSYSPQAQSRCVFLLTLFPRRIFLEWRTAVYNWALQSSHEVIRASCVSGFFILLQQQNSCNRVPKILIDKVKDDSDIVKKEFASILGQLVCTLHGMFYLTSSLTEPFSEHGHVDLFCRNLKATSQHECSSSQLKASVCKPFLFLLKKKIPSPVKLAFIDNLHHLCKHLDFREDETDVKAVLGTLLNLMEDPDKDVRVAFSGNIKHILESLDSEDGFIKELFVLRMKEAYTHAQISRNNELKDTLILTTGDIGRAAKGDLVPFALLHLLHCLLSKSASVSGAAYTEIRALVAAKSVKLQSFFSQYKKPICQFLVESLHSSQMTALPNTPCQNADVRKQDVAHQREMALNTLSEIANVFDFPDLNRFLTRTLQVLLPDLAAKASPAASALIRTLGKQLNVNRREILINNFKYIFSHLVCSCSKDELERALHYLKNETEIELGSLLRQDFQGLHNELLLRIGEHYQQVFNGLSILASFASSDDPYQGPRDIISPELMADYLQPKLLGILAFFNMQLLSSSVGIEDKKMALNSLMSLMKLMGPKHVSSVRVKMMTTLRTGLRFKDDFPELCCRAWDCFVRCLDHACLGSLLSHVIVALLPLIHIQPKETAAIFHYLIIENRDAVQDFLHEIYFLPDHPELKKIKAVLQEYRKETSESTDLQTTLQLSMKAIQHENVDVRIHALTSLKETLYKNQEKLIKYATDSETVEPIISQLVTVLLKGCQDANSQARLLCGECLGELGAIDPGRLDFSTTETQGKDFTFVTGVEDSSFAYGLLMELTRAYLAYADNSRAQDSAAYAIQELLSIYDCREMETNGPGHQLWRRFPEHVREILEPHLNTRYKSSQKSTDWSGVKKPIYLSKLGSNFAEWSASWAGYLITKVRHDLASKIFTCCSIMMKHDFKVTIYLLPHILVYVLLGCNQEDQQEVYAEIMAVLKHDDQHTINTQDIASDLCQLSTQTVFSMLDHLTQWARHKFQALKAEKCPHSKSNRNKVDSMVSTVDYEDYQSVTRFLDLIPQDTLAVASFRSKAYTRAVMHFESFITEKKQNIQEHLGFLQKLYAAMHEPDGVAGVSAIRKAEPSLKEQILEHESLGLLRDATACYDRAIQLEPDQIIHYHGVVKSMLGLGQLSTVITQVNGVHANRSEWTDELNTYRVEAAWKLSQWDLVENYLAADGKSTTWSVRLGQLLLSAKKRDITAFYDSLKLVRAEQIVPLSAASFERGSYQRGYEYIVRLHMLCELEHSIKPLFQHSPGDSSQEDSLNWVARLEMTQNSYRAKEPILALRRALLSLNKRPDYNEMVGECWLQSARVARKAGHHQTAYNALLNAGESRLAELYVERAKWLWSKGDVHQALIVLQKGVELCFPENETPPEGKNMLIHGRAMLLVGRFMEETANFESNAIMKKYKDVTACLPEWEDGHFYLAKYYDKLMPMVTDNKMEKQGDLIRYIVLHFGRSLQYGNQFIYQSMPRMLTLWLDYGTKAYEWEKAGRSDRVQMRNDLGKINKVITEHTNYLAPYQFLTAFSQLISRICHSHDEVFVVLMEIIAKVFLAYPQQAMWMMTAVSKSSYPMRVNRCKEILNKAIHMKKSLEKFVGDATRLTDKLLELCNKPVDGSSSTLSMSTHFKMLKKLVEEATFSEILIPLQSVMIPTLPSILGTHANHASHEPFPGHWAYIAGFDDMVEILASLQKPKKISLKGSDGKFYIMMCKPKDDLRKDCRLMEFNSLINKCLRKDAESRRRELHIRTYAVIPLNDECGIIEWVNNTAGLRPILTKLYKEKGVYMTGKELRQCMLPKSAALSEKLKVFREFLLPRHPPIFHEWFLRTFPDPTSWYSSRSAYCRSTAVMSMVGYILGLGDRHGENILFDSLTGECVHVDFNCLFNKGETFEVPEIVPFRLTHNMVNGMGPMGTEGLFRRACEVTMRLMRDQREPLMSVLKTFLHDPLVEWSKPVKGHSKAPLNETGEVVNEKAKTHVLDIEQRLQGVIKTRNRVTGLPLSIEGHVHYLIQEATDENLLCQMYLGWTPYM
Nature of the assay: ATR Inhibition Assay (radioactive-phosphate incorporation). Type of assay: biochemical. The conditions noted are these: Ki(app); 5 nM full-length ATR, 10 μM ATP, 800 μM target peptide, 25° C. The method, then: Compounds were screened for their ability to inhibit ATR kinase using a radioactive-phosphate incorporation assay. Assays were carried out in a mixture of 50 mM Tris/HCl (pH 7.5), 10 mM MgCl2 and 1 mM DTT. Final substrate concentrations were 10 μM [γ-33P]ATP (3mCi 33P ATP/mmol ATP, Perkin Elmer) and 800 μM target peptide (ASELPASQPQPFSAKKK) (SEQ. ID. NO: 1).
Assays were carried out at 25° C. in the presence of 5 nM full-length ATR. An assay stock buffer solution was prepared containing all of the reagents listed above, with the exception of ATP and the test compound of interest. 13.5 μL of the stock solution was placed in a 96 well plate followed by addition of 2 μL of DMSO stock containing serial dilutions of the test compound (typically starting from a final concentration of 15 μM with 3-fold serial dilutions) in duplicate (final DMSO concentration 7%). The plate was pre-incubated for 10 minutes at 25° C. and the reaction initiated by addition of 15 μL [γ-33P]ATP (final concentration 10 μM).
The reaction was stopped after […] by the addition of 30 μL 0.1M phosphoric acid containing 2 mM ATP. A multiscreen phosphocellulose filter 96-well plate (Millipore, Cat no. MAPHN0B50) was pretreated with 100 μL 0.2M phosphoric acid prior to the addition of 45 μL of the stopped assay mixture. The plate was washed with 5×200 μL 0.2M phosphoric acid. After drying, 100 μL Optiphase ‘SuperMix’ liquid scintillation cocktail (Perkin Elmer) was added to the well prior to scintillation counting (1450 Microbeta Liquid Scintillation Counter, Wallac).
After removing mean background values for all of the data points, Ki(app) data were calculated from non-linear regression analysis of the initial rate data using the Prism software package (GraphPad Prism version 3.0cx for Macintosh, GraphPad Software, San Diego Calif., USA).
Below is a chart showing the ATR Inhibition Ki values of compounds of the disclosure.
As for `CC(C)S(=O)(=O)c1ccc(-c2cnc3[nH]cc(N4Cc5ccccc5C4=O)c3n2)cc1` [Compound I-1, 2-(2-(4-(isopropylsulfonyl)phenyl)-5H-pyrrolo[2,3-b]pyrazin-7-yl)isoindolin-1-one], the Ki is ≤ 50 nM.
Same read-out and setting: with `CC(C)S(=O)(=O)c1ccc(-c2cnc3[nH]cc(N4CCc5ccccc5C4=O)c3n2)cc1` [Compound I-2, 2-(2-(4-(isopropylsulfonyl)phenyl)-5H-pyrrolo[2,3-b]pyrazin-7-yl)-3,4-dihydroisoquinolin-1(2H)-one] the figure was 100 to 250 nM; with `CC1c2ccccc2C(=O)N1c1c[nH]c2ncc(-c3ccc(S(=O)(=O)C(C)C)cc3)nc12` (stereo not shown) [Compound I-3, 2-(2-(4-(isopropylsulfonyl)phenyl)-5H-pyrrolo[2,3-b]pyrazin-7-yl)-3-methylisoindolin-1-one], ≤ 50 nM.
In the case of `CN(C)C(=O)c1ccc(-c2cnc3[nH]cc(N4Cc5ccccc5C4=O)c3n2)cc1` [Compound I-4, N,N-dimethyl-4-(7-(1-oxoisoindolin-2-yl)-5H-pyrrolo[2,3-b]pyrazin-2-yl)benzamide], the Ki fell in the range of 50 to 100 nM.
Same read-out and setting: with `O=C1c2ccccc2CN1c1c[nH]c2ncc(-c3ccc(S(=O)(=O)C4COC4)cc3)nc12` [Compound I-5, 2-(2-(4-(oxetan-3-ylsulfonyl)phenyl)-5H-pyrrolo[2,3-b]pyrazin-7-yl)isoindolin-1-one] the figure was ≤ 50 nM.
The same measure, in the same setting: with `CC(C)(C#N)c1cc(-c2cnc3[nH]cc(N4Cc5ccccc5C4=O)c3n2)ccn1` [Compound I-6, 2-methyl-2-(4-(7-(1-oxoisoindohn-2-yl)-5H-pyrrolo[2,3-b]pyrazin-2-yl)pyridin-2-yl)propanenitrile] the figure was ≤ 50 nM.
Same read-out and setting: with `N#CC1(c2cc(-c3cnc4[nH]cc(N5Cc6ccccc6C5=O)c4n3)ccn2)CN2CCC1CC2` (stereo not shown) [Compound I-7, 3-(4-(7-(1-oxoisoindolin-2-yl)-5H-pyrrolo[2,3-b]pyrazin-2-yl)pyridin-2-yl)quinuclidine-3-carbonitrile] the figure was ≤ 50 nM; with `O=C1c2ccccc2CN1c1c[nH]c2ncc(-c3ccc(S(=O)(=O)C4CCCNC4)cc3)nc12` (stereo not shown) [Compound I-8, 2-(2-(4-(piperidin-3-ylsulfonyl)phenyl)-5H-pyrrolo[2,3-b]pyrazin-7-yl)isoindolin-1-one], ≤ 50 nM.
Take `CC(C)S(=O)(=O)c1ccc(-c2cnc3[nH]cc(N4Cc5cc(Br)ccc5C4=O)c3n2)cc1` [Compound I-9, 5-bromo-2-(2-(4-(isopropylsulfonyl)phenyl)-5H-pyrrolo[2,3-b]pyrazin-7-yl)isoindolin-1-one]: the Ki lay in the range of 50 to 100 nM.
On the same count and under the same terms, with `CC(C)S(=O)(=O)c1ccc(-c2cnc3[nH]cc(N4Cc5c(Cl)cccc5C4=O)c3n2)cc1` [Compound I-11, 4-chloro-2-(2-(4-(isopropylsulfonyl)phenyl)-5H-pyrrolo[2,3-b]pyrazin-7-yl)isoindolin-1-one] the figure was 50 to 100 nM; with `CC(C)S(=O)(=O)c1ccc(-c2cnc3[nH]cc(N4Cc5cccc(Cl)c5C4=O)c3n2)cc1` [Compound I-12, 7-chloro-2-(2-(4-(isopropylsulfonyl)phenyl)-5H-pyrrolo[2,3-b]pyrazin-7-yl)isoindolin-1-one], ≤ 50 nM.
Same read-out and setting: with `CC(C)S(=O)(=O)c1ccc(-c2cnc3[nH]cc(N4Cc5cccc([N+](=O)[O-])c5C4=O)c3n2)cc1` [Compound I-14, 2-(2-(4-(isopropylsulfonyl)phenyl)-5H-pyrrolo[2,3-b]pyrazin-7-yl)-7-nitroisoindolin-1-one] the figure was ≤ 50 nM.
On the same count and under the same terms, with `CC(C)S(=O)(=O)c1ccc(-c2cnc3[nH]cc(N4Cc5cc(CN)ccc5C4=O)c3n2)cc1` [Compound I-15, 5-(aminomethyl)-2-(2-(4-(isopropylsulfonyl)phenyl)-5H-pyrrolo[2,3-b]pyrazin-7-yl)isoindolin-1-one] the figure was 100 to 250 nM.
With `CC(C)S(=O)(=O)c1ccc(-c2cnc3[nH]cc(N4Cc5c(C#N)cccc5C4=O)c3n2)cc1` [Compound I-16, 2-(2-(4-(isopropylsulfonyl)phenyl)-5H-pyrrolo[2,3-b]pyrazin-7-yl)-1-oxoisoindoline-4-carbonitrile], the Ki lay in the range of 50 to 100 nM.
Still for that read-out and setting: with `CC(C)S(=O)(=O)c1ccc(-c2cnc3[nH]cc(N4Cc5c(CN)cccc5C4=O)c3n2)cc1` [Compound I-17, 4-(aminomethyl)-2-(2-(4-(isopropylsulfonyl)phenyl)-5H-pyrrolo[2,3-b]pyrazin-7-yl)isoindolin-1-one] the figure was ≤ 50 nM; with `CC(C)S(=O)(=O)c1ccc(-c2cnc3[nH]cc(N4Cc5cccc(C#N)c5C4=O)c3n2)cc1` [Compound I-18, 2-(2-(4-(isopropylsulfonyl)phenyl)-5H-pyrrolo[2,3-b]pyrazin-7-yl)-3-oxoisoindoline-4-carbonitrile], ≤ 50 nM.
Still for that read-out and setting: with `CC(C)S(=O)(=O)c1ccc(-c2cnc3[nH]cc(N4Cc5cccc(CN)c5C4=O)c3n2)cc1` [Compound I-19, 7-(aminomethyl)-2-(2-(4-(isopropylsulfonyl)phenyl)-5H-pyrrolo[2,3-b]pyrazin-7-yl)isoindolin-1-one] the figure was ≤ 50 nM; with `CC(C)S(=O)(=O)c1ccc(-c2cnc3[nH]cc(N4Cc5ccc(CN)cc5C4=O)c3n2)cc1` [Compound I-20, 6-(aminomethyl)-2-(2-(4-(isopropylsulfonyl)phenyl)-5H-pyrrolo[2,3-b]pyrazin-7-yl)isoindolin-1-one], ≤ 50 nM.
For the compound `CC(C)S(=O)(=O)c1ccc(-c2cnc3[nH]cc(N4Cc5cccc(N)c5C4=O)c3n2)cc1` [Compound I-21, 7-amino-2-(2-(4-(isopropylsulfonyl)phenyl)-5H-pyrrolo[2,3-b]pyrazin-7-yl)isoindolin-1-one], the Ki is ≤ 50 nM.
On the same count and under the same terms, with `O=C1c2c(Cl)cccc2CN1c1c[nH]c2ncc(-c3ccc(S(=O)(=O)C4CCNCC4)cc3)nc12` [Compound I-23, 7-chloro-2-(2-(4-(piperidin-4-ylsulfonyl)phenyl)-5H-pyrrolo[2,3-b]pyrazin-7-yl)isoindolin-1-one] the figure was ≤ 50 nM.
On the same count and under the same terms, with `O=C1c2c(Cl)cccc2CN1c1c[nH]c2ncc(-c3ccc(S(=O)(=O)C4CCCNC4)cc3)nc12` (stereo not shown) [Compound I-24, 7-chloro-2-(2-(4-(piperidin-3-ylsulfonyl)phenyl)-5H-pyrrolo[2,3-b]pyrazin-7-yl)isoindolin-1-one] the figure was ≤ 50 nM; with `CC(C)S(=O)(=O)c1ccc(-c2cnc3[nH]cc(N4Cc5ccc(N6CC[C@@H](N)C6)cc5C4=O)c3n2)cc1` [Compound I-25, (R)-6-(3-aminopyrrolidin-1-yl)-2-(2-(4-(isopropylsulfonyl)phenyl)-5H-pyrrolo[2,3-b]pyrazin-7-yl)isoindolin-1-one], ≤ 50 nM.
On the same count and under the same terms, with `CC(C)S(=O)(=O)c1ccc(-c2cnc3[nH]cc(N4Cc5ccc(NCCN(C)C)cc5C4=O)c3n2)cc1` [Compound I-26, 6-((2-(dimethylamino)ethyl)amino)-2-(2-(4-(isopropylsulfonyl)phenyl)-5H-pyrrolo[2,3-b]pyrazin-7-yl)isoindolin-1-one] the figure was ≤ 50 nM; with `CC(C)S(=O)(=O)c1ccc(-c2cnc3[nH]cc(N4Cc5ccc(N6CC[C@H](N)C6)cc5C4=O)c3n2)cc1` [Compound I-27, (S)-6-(3-aminopyrrolidin-1-yl)-2-(2-(4-(isopropylsulfonyl)phenyl)-5H-pyrrolo[2,3-b]pyrazin-7-yl)isoindolin-1-one], ≤ 50 nM; with `CC(C)S(=O)(=O)c1ccc(-c2cnc3[nH]cc(N4Cc5cc(N6CCNCC6)ccc5C4=O)c3n2)cc1` [Compound I-28, 2-(2-(4-(isopropylsulfonyl)phenyl)-5H-pyrrolo[2,3-b]pyrazin-7-yl)-5-(piperazin-1-yl)isoindolin-1-one], ≤ 50 nM.
Turning to `CC(C)S(=O)(=O)c1ccc(-c2cnc3[nH]cc(N4Cc5cc(N6CC[C@H](CN)C6)ccc5C4=O)c3n2)cc1` [Compound I-29, (R)-5-(3-(aminomethyl)pyrrolidin-1-yl)-2-(2-(4-(isopropylsulfonyl)phenyl)-5H-pyrrolo[2,3-b]pyrazin-7-yl)isoindolin-1-one], the Ki was ≤ 50 nM.
Same read-out and setting: with `CC(C)S(=O)(=O)c1ccc(-c2cnc3[nH]cc(N4Cc5cc(N6CCCC(N)C6)ccc5C4=O)c3n2)cc1` (stereo not shown) [Compound I-30, 5-(3-aminopiperidin-1-yl)-2-(2-(4-(isopropylsulfonyl)phenyl)-5H-pyrrolo[2,3-b]pyrazin-7-yl)isoindolin-1-one] the figure was ≤ 50 nM.

The assay is the same for the next values; noted with them: numeric bound printed among class symbols; Ki(app); 5 nM full-length ATR, 10 μM ATP, 25° C.
Regarding `CC(C)S(=O)(=O)c1ccc(-c2cnc3[nH]cc(N4Cc5ccc(C#N)cc5C4=O)c3n2)cc1` [Compound I-13, 2-(2-(4-(isopropylsulfonyl)phenyl)-5H-pyrrolo[2,3-b]pyrazin-7-yl)-3-oxoisoindoline-5-carbonitrile], the Ki was > 4000 nM.

The values are drawn from patent US9309250B2, “Substituted pyrrolo[2,3-b]pyrazines as ATR kinase inhibitors” (Vertex Pharmaceuticals Incorporated, priority 2011, dated 2016).
